Measurements: patent publication US10323038B2, “Pyrazole compounds and methods of making and using same” (ABIDE THERAPEUTICS, INC., priority 2015, dated 2019)

Assays:
MAGL = MAGL (Mus musculus (Mouse), UniProt O35678); test: In vitro competitive activity-based protein profiling, MAGL (mouse); assay type: biochemical; details: for inhibition at 1 µM: read-out: MAGL % inh. 1 μM (mouse)
Method: (§1) In Vitro Competitive Activity-Based Protein Profiling.
(§2) Proteomes (mouse brain membrane fraction or cell lysates for mouse assays; human prefrontal cortex or cell membrane fractions for human assays) (50 μL, 1.0 mg/mL total protein concentration) were preincubated with varying concentrations of inhibitors at 37° C. After 30 min, FP—Rh or HT-01 (1.0 μL, 50 μM in DMSO) was added and the mixture was incubated for another 30 min at 37° C. Reactions were quenched with SDS loading buffer (15 μL-4×) and run on SDS-PAGE. Following gel imaging, serine hydrolase activity was determined by measuring fluorescent intensity of gel bands corresponding to MAGL and FAAH using ImageJ 1.43u software.

FAAH = FAAH (Mus musculus (Mouse), UniProt O08914); test: In vitro competitive activity-based protein profiling, FAAH (mouse); assay type: biochemical; details: for inhibition at 1 µM: read-out: FAAH % inh. 1 μM (mouse)
Sequence of FAAH (O08914 whole entry): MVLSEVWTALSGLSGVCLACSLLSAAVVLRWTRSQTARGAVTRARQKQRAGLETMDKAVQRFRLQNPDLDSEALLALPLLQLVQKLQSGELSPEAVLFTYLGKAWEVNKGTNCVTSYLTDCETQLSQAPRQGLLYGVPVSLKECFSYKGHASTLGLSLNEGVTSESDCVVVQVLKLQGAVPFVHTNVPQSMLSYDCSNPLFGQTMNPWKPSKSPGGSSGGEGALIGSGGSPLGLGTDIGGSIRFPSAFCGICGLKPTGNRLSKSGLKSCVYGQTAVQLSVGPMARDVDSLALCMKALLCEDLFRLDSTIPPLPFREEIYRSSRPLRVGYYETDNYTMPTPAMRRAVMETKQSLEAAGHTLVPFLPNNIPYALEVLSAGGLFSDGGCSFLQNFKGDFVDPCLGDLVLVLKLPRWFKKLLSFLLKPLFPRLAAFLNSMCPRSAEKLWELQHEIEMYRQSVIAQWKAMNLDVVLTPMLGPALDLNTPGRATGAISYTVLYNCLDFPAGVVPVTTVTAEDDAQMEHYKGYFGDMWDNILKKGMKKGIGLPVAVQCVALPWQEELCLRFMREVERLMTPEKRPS
Method: as §1, §2

Sequence of MAGL (O35678 whole entry): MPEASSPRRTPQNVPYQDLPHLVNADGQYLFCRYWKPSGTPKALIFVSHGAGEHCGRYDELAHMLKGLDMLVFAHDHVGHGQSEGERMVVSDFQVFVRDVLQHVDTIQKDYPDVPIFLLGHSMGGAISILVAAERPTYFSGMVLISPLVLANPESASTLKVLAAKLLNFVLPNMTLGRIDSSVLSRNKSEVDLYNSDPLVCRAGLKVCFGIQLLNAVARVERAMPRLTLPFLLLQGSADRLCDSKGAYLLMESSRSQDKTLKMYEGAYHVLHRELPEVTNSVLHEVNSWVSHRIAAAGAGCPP

Row | SMILES | inhibition at 1 µM (MAGL) [%] | inhibition at 1 µM (FAAH) [%] | IC50 (MAGL) [nM] | IC50 (FAAH) [nM]
1 | CC(=O)N(C)c1cnn(C(=O)N2CCC3(CC2)CN(Cc2ccc(N4CCOCC4)cc2Cl)C3)c1 [Example 28, N-(1-(2-(2-chloro-4-morpholinobenzyl)-2,7-diazaspiro[3.5]nonane-7-carbonyl)-1H-pyrazol-4-yl)-N-methylacetamide] | ≥ 75 | ≥ 75 | – | –
2 | CC(=O)N(C)c1cnn(C(=O)N2CCC3(CC2)CN(Cc2ccc(N4CCOCC4)cc2C)C3)c1 [Example 29, N-methyl-N-(1-(2-(2-methyl-4-morpholinobenzyl)-2,7-diazaspiro[3.5]nonane-7-carbonyl)-1H-pyrazol-4-yl)acetamide] | ≥ 75 | 25 to 50 | – | –
3 | CC(=O)N(C)c1cnn(C(=O)N2CCC3(CC2)CN(Cc2cccc(N4CCCC4)c2)C3)c1 [Example 30, N-methyl-N-(1-(2-(3-(pyrrolidin-1-yl)benzyl)-2,7-diazaspiro[3.5]nonane-7-carbonyl)-1H-pyrazol-4-yl)acetamide] | ≥ 75 | ≥ 75 | – | –
4 | CC(=O)N(C)c1cnn(C(=O)N2CCC3(CC2)CN(Cc2ccc(F)cc2)C3)c1 [Example 31, N-(1-(2-(4-fluorobenzyl)-2,7-diazaspiro[3.5]nonane-7-carbonyl)-1H-pyrazol-4-yl)-N-methylacetamide] | ≥ 75 | 25 to 50 | – | –
5 | CC(=O)N(C)c1cnn(C(=O)N2CCC3(CC2)CN(Cc2ccc(C)cc2)C3)c1 [Example 32, N-methyl-N-(1-(2-(4-methylbenzyl)-2,7-diazaspiro[3.5]nonane-7-carbonyl)-1H-pyrazol-4-yl)acetamide] | ≥ 75 | 25 to 50 | – | –
6 | COc1ccc(CN2CC3(CCN(C(=O)n4cc(N(C)C(C)=O)cn4)CC3)C2)cc1 [Example 33, N-(1-(2-(4-methoxybenzyl)-2,7-diazaspiro[3.5]nonane-7-carbonyl)-1H-pyrazol-4-yl)-N-methylacetamide] | 50 to 75 | 25 to 50 | – | –
7 | CC(=O)N(C)c1cnn(C(=O)N2CCC3(CC2)CN(Cc2cccc(Cl)c2)C3)c1 [Example 34, N-(1-(2-(3-chlorobenzyl)-2,7-diazaspiro[3.5]nonane-7-carbonyl)-1H-pyrazol-4-yl)-N-methylacetamide] | ≥ 75 | ≥ 75 | ≤ 100 | ≤ 100
8 | CC(=O)N(C)c1cnn(C(=O)N2CCC3(CC2)CN(Cc2cccc(F)c2)C3)c1 [Example 35, N-(1-(2-(3-fluorobenzyl)-2,7-diazaspiro[3.5]nonane-7-carbonyl)-1H-pyrazol-4-yl)-N-methylacetamide] | ≥ 75 | ≥ 75 | – | –
9 | CC(=O)N(C)c1cnn(C(=O)N2CCC3(CC2)CN(Cc2cccc(C)c2)C3)c1 [Example 36, N-methyl-N-(1-(2-(3-methylbenzyl)-2,7-diazaspiro[3.5]nonane-7-carbonyl)-1H-pyrazol-4-yl)acetamide] | ≥ 75 | ≥ 75 | – | –
10 | COc1cccc(CN2CC3(CCN(C(=O)n4cc(N(C)C(C)=O)cn4)CC3)C2)c1 [Example 37, N-(1-(2-(3-methoxybenzyl)-2,7-diazaspiro[3.5]nonane-7-carbonyl)-1H-pyrazol-4-yl)-N-methylacetamide] | 50 to 75 | 50 to 75 | – | –
11 | CC(=O)N(C)c1cnn(C(=O)N2CCC3(CC2)CN(Cc2cccc(C(F)(F)F)c2)C3)c1 [Example 38, N-methyl-N-(1-(2-(3-(trifluoromethyl)benzyl)-2,7-diazaspiro[3.5]nonane-7-carbonyl)-1H-pyrazol-4-yl)acetamide] | ≥ 75 | ≥ 75 | ≤ 100 | 100 to 1000
12 | CC(=O)N(C)c1cnn(C(=O)N2CCC3(CC2)CN(Cc2cccc(N4CCOCC4)c2)C3)c1 [Example 39, N-methyl-N-(1-(2-(3-morpholinobenzyl)-2,7-diazaspiro[3.5]nonane-7-carbonyl)-1H-pyrazol-4-yl)acetamide] | ≥ 75 | 25 to 50 | – | –
13 | CC(=O)N(C)c1cnn(C(=O)N2CCC3(CC2)CN(Cc2ccccc2Cl)C3)c1 [Example 40, N-(1-(2-(2-chlorobenzyl)-2,7-diazaspiro[3.5]nonane-7-carbonyl)-1H-pyrazol-4-yl)-N-methylacetamide] | ≥ 75 | ≥ 75 | ≤ 100 | 100 to 1000
14 | CC(=O)N(C)c1cnn(C(=O)N2CCC3(CC2)CN(Cc2ccccc2F)C3)c1 [Example 41, N-(1-(2-(2-fluorobenzyl)-2,7-diazaspiro[3.5]nonane-7-carbonyl)-1H-pyrazol-4-yl)-N-methylacetamide] | ≥ 75 | 50 to 75 | – | –
15 | CC(=O)N(C)c1cnn(C(=O)N2CCC3(CC2)CN(Cc2ccccc2C)C3)c1 [Example 42, N-methyl-N-(1-(2-(2-methylbenzyl)-2,7-diazaspiro[3.5]nonane-7-carbonyl)-1H-pyrazol-4-yl)acetamide] | ≥ 75 | ≥ 75 | – | –
16 | COc1ccccc1CN1CC2(CCN(C(=O)n3cc(N(C)C(C)=O)cn3)CC2)C1 [Example 43, N-(1-(2-(2-methoxybenzyl)-2,7-diazaspiro[3.5]nonane-7-carbonyl)-1H-pyrazol-4-yl)-N-methylacetamide] | ≥ 75 | 0 to 25 | – | –
17 | CC(=O)N(C)c1cnn(C(=O)N2CCC3(CC2)CN(Cc2ccccc2C(F)(F)F)C3)c1 [Example 44, N-methyl-N-(1-(2-(2-(trifluoromethyl)benzyl)-2,7-diazaspiro[3.5]nonane-7-carbonyl)-1H-pyrazol-4-yl)acetamide] | ≥ 75 | ≥ 75 | ≤ 100 | ≤ 100
18 | CC(=O)N(C)c1cnn(C(=O)N2CCC3(CC2)CN(Cc2ccccc2N2CCCC2)C3)c1 [Example 45, N-methyl-N-(1-(2-(2-(pyrrolidin-1-yl)benzyl)-2,7-diazaspiro[3.5]nonane-7-carbonyl)-1H-pyrazol-4-yl)acetamide] | ≥ 75 | 0 to 25 | – | –
19 | CC(=O)N(C)c1cnn(C(=O)N2CCC3(CC2)CN(Cc2ccccc2N2CCOCC2)C3)c1 [Example 46, N-methyl-N-(1-(2-(2-morpholinobenzyl)-2,7-diazaspiro[3.5]nonane-7-carbonyl)-1H-pyrazol-4-yl)acetamide] | 50 to 75 | 0 to 25 | – | –
20 | CC(=O)N(C)c1cnn(C(=O)N2CCC3(CCN(Cc4ccc(N5CCCC5)cc4)C3)C2)c1 (stereo not drawn) [Example 47, N-methyl-N-(1-(7-(4-(pyrrolidin-1-yl)benzyl)-2,7-diazaspiro[4.4]nonane-2-carbonyl)-1H-pyrazol-4-yl)acetamide] | 25 to 50 | ≥ 75 | – | –
21 | CC(=O)N(C)c1cnn(C(=O)N2CCC3(CCN(Cc4c(Cl)cccc4Cl)C3)C2)c1 (stereo not drawn) [Example 49, N-(1-(7-(2,6-dichlorobenzyl)-2,7-diazaspiro[4.4]nonane-2-carbonyl)-1H-pyrazol-4-yl)-N-methylacetamide] | ≥ 75 | ≥ 75 | 100 to 1000 | 100 to 1000
22 | CC(=O)N(C)c1cnn(C(=O)N2CCC3(CCN(Cc4ccc(Cl)cc4Cl)C3)C2)c1 (stereo not drawn) [Example 51, N-(1-(7-(2,4-dichlorobenzyl)-2,7-diazaspiro[4.4]nonane-2-carbonyl)-1H-pyrazol-4-yl)-N-methylacetamide] | ≥ 75 | ≥ 75 | ≤ 100 | ≤ 100
23 | CC(=O)N(C)c1cnn(C(=O)N2CCC3(CCN(Cc4cc(Cl)cc(Cl)c4)C3)C2)c1 (stereo not drawn) [Example 53, N-(1-(7-(3,5-dichlorobenzyl)-2,7-diazaspiro[4.4]nonane-2-carbonyl)-1H-pyrazol-4-yl)-N-methylacetamide] | ≥ 75 | ≥ 75 | 100 to 1000 | ≤ 100
24 | CC(=O)N(C)c1cnn(C(=O)N2CCC3(CCN(Cc4ccc(C)cc4Cl)C3)C2)c1 (stereo not drawn) [Example 55, N-(1-(7-(2-chloro-4-methylbenzyl)-2,7-diazaspiro[4.4]nonane-2-carbonyl)-1H-pyrazol-4-yl)-N-methylacetamide] | ≥ 75 | ≥ 75 | 100 to 1000 | ≤ 100
25 | CC(=O)N(C)c1cnn(C(=O)N2CCC3(CCN(Cc4cccc(Cl)c4C)C3)C2)c1 (stereo not drawn) [Example 57, N-(1-(7-(3-chloro-2-methylbenzyl)-2,7-diazaspiro[4.4]nonane-2-carbonyl)-1H-pyrazol-4-yl)-N-methylacetamide] | ≥ 75 | ≥ 75 | 100 to 1000 | ≤ 100
26 | CC(=O)N(C)c1cnn(C(=O)N2CCC3(CCN(Cc4cccc(Cl)c4Cl)C3)C2)c1 (stereo not drawn) [Example 59, N-(1-(7-(2,3-dichlorobenzyl)-2,7-diazaspiro[4.4]nonane-2-carbonyl)-1H-pyrazol-4-yl)-N-methylacetamide] | ≥ 75 | ≥ 75 | 100 to 1000 | ≤ 100
27 | CC(=O)N(C)c1cnn(C(=O)N2CCC3(CCN(Cc4ccc(C(F)(F)F)c(N5CCOCC5)c4)C3)C2)c1 (stereo not drawn) [Example 61, N-methyl-N-(1-(7-(3-morpholino-4-(trifluoromethyl)benzyl)-2,7-diazaspiro[4.4]nonane-2-carbonyl)-1H-pyrazol-4-yl)acetamide] | ≥ 75 | ≥ 75 | ≤ 100 | ≤ 100
28 | CC(=O)N(C)c1cnn(C(=O)N2CCC3(CCN(Cc4cc(Cl)cc(N5CCOCC5)c4)C3)C2)c1 (stereo not drawn) [Example 63, N-(1-(7-(3-chloro-5-morpholinobenzyl)-2,7-diazaspiro[4.4]nonane-2-carbonyl)-1H-pyrazol-4-yl)-N-methylacetamide] | ≥ 75 | ≥ 75 | – | –
